Like-named read-outs stand apart in the source and are kept apart here.
Tests used:
[1] = molecular target: T1, α5β1 integrin (Homo sapiens, UniProt P05556+P08648); test: Cell adhesion assay: K562 cells to immobilized fibronectin (α5β1 integrin-mediated)
Method: (§1) The ability of the synthesized racemic ligands to inhibit the adhesion of K562 cells (human erythroleukemic cells, expressing α5β1 integrin) or SK-MEL-24 cells (human malignant melanoma cells, expressing αvβ3 integrin) to immobilized fibronectin was evaluated[29]. […] In these experiments, the cells were seeded onto plates coated with fibronectin and allowed to adhere before quantitation of the number of adherent cells, in presence of increasing concentrations of the compounds.
(§2) SK-MEL-24 (American Tissue Culture Collection, ATCC, Rockville, MD) were routinely grown in minimum essential medium (MEM, Cambrex, Walkersville, MD) supplemented with 10% fetal bovine serum (FBS), nonessential amino acids, and sodium pyruvate. K-562 (ATCC, Rockville, MD) were maintained as a stationary suspension culture in RPMI-1640 and L-glutamine with 10% FBS (Invitrogen (Carlsbad, CA). Cells were kept at 37 °C in a 5% CO2 humidified atmosphere. Forty hours before experiments, K-562 were treated with 25 ng/mL PMA (Sigma-Aldrich SRL, Milan, Italy) to induce differentiation and to increase expression of cell surface antigens[50].
(§3) Plates (96 wells) (Corning Costar, Celbio, Milan,Italy) were coated by passive adsorption with fibronectin (10 µg/mL) or poly-L-lysine (0.002%) (Sigma-Aldrich SRL) overnight at 4 °C. Cells were counted with a haemocytometer and pre-incubated with different concentrations of each compound or with the vehicle (methanol) for 30 min at room temperature to reach a ligand-receptor equilibrium. Stock solutions (10^–2 M) of the assayed compounds were prepared in phosphate-buffered saline (PBS). […] This product is a chromogenic substrate for β-N-acetylglucosaminidase that is transformed in 4-nitrophenol whose absorbance can be measured at 405 nm. As previously described[51], there is a linear correlation between absorbance and enzymatic activity. Therefore, it is possible to identify the number of adherent cells among treated wells, interpolating the absorbance values of unknowns in a calibration curve. The reaction was blocked by addition of 100 µL of a stopping solution [50 µM glycine and 5 µM EDTA (pH 10.4)], and the plates were read in an EnSpire Multimode Plate Reader (PerkinElmer, Waltham, MA, USA). Experiments were carried out in quadruplicate and repeated at least three times. Data analysis and IC50/EC50 values were calculated using Graph-Pad Prism 5.0 (GraphPad Software, San Diego, CA).

[2] = molecular target: T2, αvβ3 integrin (Homo sapiens, UniProt P05106+P06756); test: Cell adhesion assay: SK-MEL-24 cells to immobilized fibronectin (αvβ3 integrin-mediated); details: for αvβ3 behaviour (agonist/antagonist): SK-MEL-24 cell adhesion to fibronectin
T2 sequence (P06756 31-889 limits assumed): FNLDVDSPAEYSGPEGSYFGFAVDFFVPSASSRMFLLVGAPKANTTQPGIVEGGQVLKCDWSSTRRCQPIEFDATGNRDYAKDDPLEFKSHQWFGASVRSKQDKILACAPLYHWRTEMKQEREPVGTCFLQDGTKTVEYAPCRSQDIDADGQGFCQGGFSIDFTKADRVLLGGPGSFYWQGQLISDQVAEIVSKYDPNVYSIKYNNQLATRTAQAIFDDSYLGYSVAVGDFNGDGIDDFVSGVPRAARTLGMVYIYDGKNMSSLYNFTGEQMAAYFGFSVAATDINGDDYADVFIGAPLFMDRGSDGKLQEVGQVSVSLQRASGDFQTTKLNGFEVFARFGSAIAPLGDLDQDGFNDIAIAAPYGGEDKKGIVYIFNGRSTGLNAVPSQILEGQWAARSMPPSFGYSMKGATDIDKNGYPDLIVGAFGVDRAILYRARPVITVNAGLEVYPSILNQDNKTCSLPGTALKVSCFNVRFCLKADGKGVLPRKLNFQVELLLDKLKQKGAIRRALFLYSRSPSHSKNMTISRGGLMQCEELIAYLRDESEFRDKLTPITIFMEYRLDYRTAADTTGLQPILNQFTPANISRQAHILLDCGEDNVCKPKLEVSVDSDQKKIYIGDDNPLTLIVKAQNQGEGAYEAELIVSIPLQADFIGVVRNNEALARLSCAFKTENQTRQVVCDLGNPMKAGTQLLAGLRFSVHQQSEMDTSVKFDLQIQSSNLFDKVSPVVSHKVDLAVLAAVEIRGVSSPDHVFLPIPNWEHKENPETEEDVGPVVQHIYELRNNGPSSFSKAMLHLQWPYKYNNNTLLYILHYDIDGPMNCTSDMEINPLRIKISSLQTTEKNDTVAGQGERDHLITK
T2 sequence (P06756 891-1048 partner limits assumed): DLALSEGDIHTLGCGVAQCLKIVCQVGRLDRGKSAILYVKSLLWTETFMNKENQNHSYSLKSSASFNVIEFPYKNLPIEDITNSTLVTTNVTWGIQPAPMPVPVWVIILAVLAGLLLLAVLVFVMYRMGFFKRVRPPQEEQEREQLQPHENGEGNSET
T2 sequence (P05106 27-788): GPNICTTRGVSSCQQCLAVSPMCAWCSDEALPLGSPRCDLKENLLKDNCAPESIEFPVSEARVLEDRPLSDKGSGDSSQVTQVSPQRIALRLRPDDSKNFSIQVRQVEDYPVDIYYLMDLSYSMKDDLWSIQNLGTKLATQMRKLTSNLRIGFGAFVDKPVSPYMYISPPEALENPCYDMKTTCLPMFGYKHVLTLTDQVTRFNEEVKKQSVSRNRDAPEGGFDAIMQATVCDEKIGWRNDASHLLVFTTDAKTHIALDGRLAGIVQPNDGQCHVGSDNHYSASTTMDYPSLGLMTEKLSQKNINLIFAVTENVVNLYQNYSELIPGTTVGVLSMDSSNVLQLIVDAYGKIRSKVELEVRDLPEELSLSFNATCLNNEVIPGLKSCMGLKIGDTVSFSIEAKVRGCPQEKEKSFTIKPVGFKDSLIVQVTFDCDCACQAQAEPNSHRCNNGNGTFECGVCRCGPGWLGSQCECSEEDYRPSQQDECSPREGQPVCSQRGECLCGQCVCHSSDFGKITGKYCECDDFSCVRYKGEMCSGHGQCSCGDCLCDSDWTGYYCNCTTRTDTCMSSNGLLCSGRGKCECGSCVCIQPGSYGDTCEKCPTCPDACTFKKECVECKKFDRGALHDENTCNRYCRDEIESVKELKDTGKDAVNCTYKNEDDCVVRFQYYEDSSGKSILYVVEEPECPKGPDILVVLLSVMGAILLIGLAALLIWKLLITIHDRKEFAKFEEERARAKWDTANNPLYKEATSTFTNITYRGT
Method: as §1, §2, §3

[3] = molecular target: T1, α5β1 integrin; set-up: K562 cells (human erythroleukemic cells, expressing α5β1 integrin); endogenous in cells; host or cells: K-562 (ATCC), treated with PMA 40 h before the experiments; details: cited from earlier work; for α5β1 behaviour (agonist/antagonist): reference compounds, entries 11-17, 41 (table footnotes b-f); for IC50: cell adhesion assay, Figure 1, ref ChemMedChem 2011, 6, 2264–2272
[4] = molecular target: T2, αvβ3 integrin; set-up: SK-MEL-24 cells (human malignant melanoma cells, expressing αvβ3 integrin); endogenous in cells; host or cells: SK-MEL-24 (ATCC); details: cited from earlier work; for IC50: cell adhesion assay, Figure 1, ref ChemMedChem 2011, 6, 2264–2272; for αvβ3 behaviour (agonist/antagonist): reference compounds, entries 11-19, Dechantsreiter et al. (table footnotes b-h)

T1 sequence (P08648 42-894 limits assumed): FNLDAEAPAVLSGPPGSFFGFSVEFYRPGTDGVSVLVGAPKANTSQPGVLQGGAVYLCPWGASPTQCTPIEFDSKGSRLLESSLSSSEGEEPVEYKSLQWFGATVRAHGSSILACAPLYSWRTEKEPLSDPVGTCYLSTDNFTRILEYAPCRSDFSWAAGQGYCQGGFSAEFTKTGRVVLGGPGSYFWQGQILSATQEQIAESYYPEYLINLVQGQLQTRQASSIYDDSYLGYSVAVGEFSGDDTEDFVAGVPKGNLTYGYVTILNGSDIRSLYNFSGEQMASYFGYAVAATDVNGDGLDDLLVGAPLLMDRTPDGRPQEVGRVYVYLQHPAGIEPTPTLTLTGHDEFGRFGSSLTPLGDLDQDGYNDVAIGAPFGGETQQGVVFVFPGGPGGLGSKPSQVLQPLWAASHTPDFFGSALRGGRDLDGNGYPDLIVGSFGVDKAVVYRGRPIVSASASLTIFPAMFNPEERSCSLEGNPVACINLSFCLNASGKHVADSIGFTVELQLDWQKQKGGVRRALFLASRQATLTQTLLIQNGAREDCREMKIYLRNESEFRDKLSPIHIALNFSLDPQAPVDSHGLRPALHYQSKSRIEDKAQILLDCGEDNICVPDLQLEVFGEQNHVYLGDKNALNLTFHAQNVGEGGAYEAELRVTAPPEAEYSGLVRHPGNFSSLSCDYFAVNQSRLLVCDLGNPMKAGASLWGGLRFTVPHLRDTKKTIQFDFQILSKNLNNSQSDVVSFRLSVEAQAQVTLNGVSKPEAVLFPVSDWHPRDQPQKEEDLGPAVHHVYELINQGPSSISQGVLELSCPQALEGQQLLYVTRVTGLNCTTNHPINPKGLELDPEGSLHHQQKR
T1 sequence (P08648 895-1049 partner limits assumed): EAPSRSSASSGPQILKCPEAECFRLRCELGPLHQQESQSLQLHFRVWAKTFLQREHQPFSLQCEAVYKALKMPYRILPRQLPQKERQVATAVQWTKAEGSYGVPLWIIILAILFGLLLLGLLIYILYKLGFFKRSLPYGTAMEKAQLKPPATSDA
T1 sequence (P05556 21-798): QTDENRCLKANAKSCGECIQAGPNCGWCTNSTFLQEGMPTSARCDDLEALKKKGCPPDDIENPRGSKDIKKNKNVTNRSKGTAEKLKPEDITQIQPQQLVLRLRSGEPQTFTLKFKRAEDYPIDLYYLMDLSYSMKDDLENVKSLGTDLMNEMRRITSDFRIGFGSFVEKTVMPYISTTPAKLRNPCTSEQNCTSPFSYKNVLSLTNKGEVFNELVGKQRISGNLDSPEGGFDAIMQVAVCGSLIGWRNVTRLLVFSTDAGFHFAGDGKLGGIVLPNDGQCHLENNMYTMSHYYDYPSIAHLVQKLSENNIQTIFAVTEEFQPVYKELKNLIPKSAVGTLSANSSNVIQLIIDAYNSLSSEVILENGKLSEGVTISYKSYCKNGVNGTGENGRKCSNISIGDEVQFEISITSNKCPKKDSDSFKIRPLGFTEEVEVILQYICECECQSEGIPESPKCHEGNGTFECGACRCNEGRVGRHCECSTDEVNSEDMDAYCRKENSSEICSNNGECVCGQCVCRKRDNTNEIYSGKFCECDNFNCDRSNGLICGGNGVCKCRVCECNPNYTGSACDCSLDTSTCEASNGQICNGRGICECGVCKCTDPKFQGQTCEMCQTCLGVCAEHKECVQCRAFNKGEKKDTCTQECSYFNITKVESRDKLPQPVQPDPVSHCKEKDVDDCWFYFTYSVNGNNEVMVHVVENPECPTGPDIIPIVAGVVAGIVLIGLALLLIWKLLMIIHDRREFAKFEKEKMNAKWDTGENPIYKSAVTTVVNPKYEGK

## C#CCCCC1C(C(=O)NCc2ccc(N)cc2)=C(C)ON1C(=O)CC(=O)O (stereo not drawn) [Compound 8]
[1]
  IC50: > 1000 µM
[2]
  EC50: 0.83 ± 0.05 µM
  αvβ3 behaviour (agonist/antagonist): agonist

## CCOC(=O)COCCOCCn1cc(CCCC2C(C(=O)NCc3ccc(N)cc3)=C(C)ON2C(=O)CC(=O)O)nn1 (stereo not drawn) [Compound 30]
[1]
  IC50: > 1000 µM
[2]
  IC50: > 1000 µM

## Cc1ccccc1NC(=O)N1C(=O)CC1CC(=O)NCC(=O)O (stereo not drawn) [Ref E, 2-(2-(4-Oxo-(o-tolylcarbamoyl)azetidin-2-yl)acetamido)acetic acid]
[3]; cell adhesion to fibronectin
  α5β1 IC50/EC50 (EC50 for agonists): 0.0129 ± 0.0006 µM
[3]
  α5β1 behaviour (agonist/antagonist): agonist
[4]; cell adhesion to fibronectin
  αvβ3 IC50/EC50: >1000 µM

## CC1=C(C(=O)NCc2ccc(N)cc2)C(CCCc2cn(CCC(=O)OC(C)(C)C)nn2)N(C(=O)CC(=O)O)O1 (stereo not drawn) [Compound 20b]
[1]
  IC50: > 1000 µM
[2]
  EC50: 0.068 ± 0.011 µM
  αvβ3 behaviour (agonist/antagonist): agonist

## CC1=C(C(=O)NCc2ccc(N)cc2)C(CCCc2cn(CCOCCOCCNC(=O)OC(C)(C)C)nn2)N(C(=O)CC(=O)O)O1 (stereo not drawn) [Compound 28]
[1]
  IC50: > 1000 µM
[2]
  IC50: 8.84 ± 0.14 µM
  αvβ3 behaviour (agonist/antagonist): antagonist

## CC1=C(C(=O)NCc2ccc(N)cc2)C(CCCc2cn(CC(=O)OC(C)(C)C)nn2)N(C(=O)CC(=O)O)O1 (stereo not drawn) [Compound 20a]
[1]
  IC50: > 1000 µM
[2]
  EC50: 0.23 ± 0.08 µM
  αvβ3 behaviour (agonist/antagonist): agonist

## CC1=C(C(=O)NCc2ccc(N)cc2)C(C)N(C(=O)CC(=O)O)O1 (stereo not drawn) [Ref A]
[3]
  IC50: 0.012 ± 0.004 µM
  α5β1 behaviour (agonist/antagonist): antagonist
[3]; cell adhesion to fibronectin
  α5β1 IC50/EC50 (IC50 for antagonists): 0.012 ± 0.004 µM
[4]
  IC50: 0.032 ± 0.003 µM
  αvβ3 behaviour (agonist/antagonist): antagonist
[4]; cell adhesion to fibronectin
  αvβ3 IC50/EC50 (IC50 for antagonists): 0.032 ± 0.003 µM

## H-Gly-Arg-Gly-Asp-Thr-Pro-OH (H-GRGDTP-OH) [standard antagonist of cell adhesion mediated by α5β1 integrin]
[3]; reference compound
  α5β1 IC50/EC50 (IC50 for antagonists): 0.00062 ± 0.00009 µM
[3]
  α5β1 behaviour (agonist/antagonist): antagonist
[4]; reference compound
  αvβ3 IC50/EC50 (IC50 for antagonists): 0.926 ± 0.006 µM
[4]
  αvβ3 behaviour (agonist/antagonist): antagonist

## CCC(C)C1C(C(=O)NCc2ccc(N)cc2)=C(C)ON1C(=O)CC(=O)O (stereo not drawn) [Ref C]
[3]
  IC50: 1.32 ± 0.08 µM
  α5β1 behaviour (agonist/antagonist): antagonist
[3]; cell adhesion to fibronectin
  α5β1 IC50/EC50 (IC50 for antagonists): 1.320 ± 0.080 µM
[4]
  IC50: 0.36 ± 0.07 µM
  αvβ3 behaviour (agonist/antagonist): antagonist
[4]; cell adhesion to fibronectin
  αvβ3 IC50/EC50 (IC50 for antagonists): 0.360 ± 0.070 µM

## CC1=C(C(=O)NCc2ccc(N)cc2)C(C(C)C)N(C(=O)CC(=O)O)O1 (stereo not drawn) [Ref B]
[3]
  IC50: 0.00105 ± 0.0003 µM
  α5β1 behaviour (agonist/antagonist): antagonist
[4]
  IC50: 0.0088 ± 0.0006 µM
  αvβ3 behaviour (agonist/antagonist): antagonist
[4]; cell adhesion to fibronectin
  αvβ3 IC50/EC50 (IC50 for antagonists): 0.0088 ± 0.0006 µM

## CCOC(=O)CCCCn1cc(CCCC2C(C(=O)NCc3ccc(N)cc3)=C(C)ON2C(=O)CC(=O)O)nn1 (stereo not drawn) [Compound 26]
[1]
  IC50: > 1000 µM
[2]
  EC50: 0.61 ± 0.08 µM
  αvβ3 behaviour (agonist/antagonist): agonist

## CC1=C(C(=O)NCc2ccc(N)cc2)C(C2CCCCC2)N(C(=O)CC(=O)O)O1 (stereo not drawn) [Ref D]
[3]
  IC50: 1.03 ± 0.05 µM
  α5β1 behaviour (agonist/antagonist): antagonist
[3]; cell adhesion to fibronectin
  α5β1 IC50/EC50 (IC50 for antagonists): 1.030 ± 0.050 µM
[4]
  IC50: 0.02 ± 0.006 µM
  αvβ3 behaviour (agonist/antagonist): antagonist
[4]; cell adhesion to fibronectin
  αvβ3 IC50/EC50 (IC50 for antagonists): 0.020 ± 0.006 µM

## Ac-Asp-Arg-Leu-Asp-Ser-OH (Ac-DRLDS-OH) [standard antagonist of cell adhesion mediated by αvβ3 integrin]
[3]; reference compound
  α5β1 IC50/EC50: >1000 µM
[4]; reference compound
  αvβ3 IC50/EC50 (IC50 for antagonists): 0.025 ± 0.003 µM
[4]
  αvβ3 behaviour (agonist/antagonist): antagonist

## CC1=C(C(=O)NCc2ccc(N)cc2)C(CCCc2cn(CCNC(=O)OC(C)(C)C)nn2)N(C(=O)CC(=O)O)O1 (stereo not drawn) [Compound 17a]
[1]
  IC50: 0.28 ± 0.03 µM
[1]; K562 cell adhesion to fibronectin
  α5β1 behaviour (agonist/antagonist): antagonist
[2]
  IC50: 0.88 ± 0.07 µM
  αvβ3 behaviour (agonist/antagonist): antagonist
